From patent publication EP1247803A2, “Indolinone compounds suitable for modulation of protein kinases” (Sugen, Inc., priority 1996, dated 1998)

Legend:
[1] = molecular target: PDGF-R (Homo sapiens, UniProt P09619); assay: PDGF-R ELISA; assay type: cell-based
Text: A PDGF-R ELISA is described in International Patent Publication No. WO 96/40116, published December 19, 1996 by Tang et al.

[2] = molecular target: T1, EGFR (Homo sapiens, UniProt P00533); assay: EGFR ELISA assay (in vitro kinase activity, EGFR captured from A431 cell lysate); assay type: biochemical; parameters: concentration or dose not given beside the values
T1 construct: Add 7 ug A431 cell lysate per well (EGFR source); endogenous in cells; host or cells: A431
T1 sequence (P00533 25-1210): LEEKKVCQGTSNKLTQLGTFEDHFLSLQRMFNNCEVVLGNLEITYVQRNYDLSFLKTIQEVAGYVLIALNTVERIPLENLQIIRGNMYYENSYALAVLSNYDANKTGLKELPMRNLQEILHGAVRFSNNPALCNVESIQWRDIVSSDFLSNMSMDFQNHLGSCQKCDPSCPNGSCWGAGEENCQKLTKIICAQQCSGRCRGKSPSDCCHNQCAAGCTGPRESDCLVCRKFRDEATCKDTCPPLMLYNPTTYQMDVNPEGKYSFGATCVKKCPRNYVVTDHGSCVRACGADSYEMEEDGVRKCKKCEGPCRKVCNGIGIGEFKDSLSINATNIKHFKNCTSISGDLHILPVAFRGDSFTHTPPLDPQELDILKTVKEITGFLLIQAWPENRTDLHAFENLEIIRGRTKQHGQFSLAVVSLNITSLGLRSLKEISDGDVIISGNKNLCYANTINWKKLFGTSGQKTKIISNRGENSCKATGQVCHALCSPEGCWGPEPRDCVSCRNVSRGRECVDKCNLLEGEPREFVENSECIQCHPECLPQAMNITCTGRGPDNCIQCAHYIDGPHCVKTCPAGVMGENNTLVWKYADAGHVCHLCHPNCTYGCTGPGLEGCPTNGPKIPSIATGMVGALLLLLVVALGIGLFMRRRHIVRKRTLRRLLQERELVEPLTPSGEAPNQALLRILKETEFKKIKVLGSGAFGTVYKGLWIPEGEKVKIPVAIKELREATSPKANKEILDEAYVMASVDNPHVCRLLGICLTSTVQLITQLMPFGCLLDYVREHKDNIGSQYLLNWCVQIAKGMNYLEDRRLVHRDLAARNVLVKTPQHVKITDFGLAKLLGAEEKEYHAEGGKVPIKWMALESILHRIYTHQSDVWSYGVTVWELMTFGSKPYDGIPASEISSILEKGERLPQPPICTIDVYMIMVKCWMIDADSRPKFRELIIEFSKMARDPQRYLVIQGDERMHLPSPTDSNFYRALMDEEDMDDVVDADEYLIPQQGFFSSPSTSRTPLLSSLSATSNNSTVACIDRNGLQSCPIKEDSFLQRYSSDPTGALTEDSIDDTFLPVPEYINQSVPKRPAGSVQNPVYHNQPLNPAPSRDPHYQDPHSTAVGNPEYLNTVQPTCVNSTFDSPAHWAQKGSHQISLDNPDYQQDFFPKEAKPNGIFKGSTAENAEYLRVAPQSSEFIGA
Outline: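 Receptor autophosphorylation was read by ELISA: anti-phosphotyrosine serum and an HRP-linked secondary with ABTS substrate, absorbance at 410 nm (reference 630 nm). The reaction ran 5 min with 3 µM ATP and 5 mM MnCl2 and was quenched by 20 mM EDTA. Compounds were first incubated 30 min with antibody-captured EGFR from A431 cell lysate.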

[3] = tested on: MET; assay: MET biochemical kinase assay; parameters: species or system human; concentration or dose not given beside the values
Outline: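 MET from cell lysates captured on ELISA plates via rabbit anti-MET cytoplasmic-domain antibody; compounds added and kinase reaction run in ATP and divalent-metal buffer. Receptor phosphotyrosine detected with HRP-conjugated anti-phosphotyrosine antibody and TMB colorimetry.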

Sequence of PDGF-R (P09619 33-1106, species assumed): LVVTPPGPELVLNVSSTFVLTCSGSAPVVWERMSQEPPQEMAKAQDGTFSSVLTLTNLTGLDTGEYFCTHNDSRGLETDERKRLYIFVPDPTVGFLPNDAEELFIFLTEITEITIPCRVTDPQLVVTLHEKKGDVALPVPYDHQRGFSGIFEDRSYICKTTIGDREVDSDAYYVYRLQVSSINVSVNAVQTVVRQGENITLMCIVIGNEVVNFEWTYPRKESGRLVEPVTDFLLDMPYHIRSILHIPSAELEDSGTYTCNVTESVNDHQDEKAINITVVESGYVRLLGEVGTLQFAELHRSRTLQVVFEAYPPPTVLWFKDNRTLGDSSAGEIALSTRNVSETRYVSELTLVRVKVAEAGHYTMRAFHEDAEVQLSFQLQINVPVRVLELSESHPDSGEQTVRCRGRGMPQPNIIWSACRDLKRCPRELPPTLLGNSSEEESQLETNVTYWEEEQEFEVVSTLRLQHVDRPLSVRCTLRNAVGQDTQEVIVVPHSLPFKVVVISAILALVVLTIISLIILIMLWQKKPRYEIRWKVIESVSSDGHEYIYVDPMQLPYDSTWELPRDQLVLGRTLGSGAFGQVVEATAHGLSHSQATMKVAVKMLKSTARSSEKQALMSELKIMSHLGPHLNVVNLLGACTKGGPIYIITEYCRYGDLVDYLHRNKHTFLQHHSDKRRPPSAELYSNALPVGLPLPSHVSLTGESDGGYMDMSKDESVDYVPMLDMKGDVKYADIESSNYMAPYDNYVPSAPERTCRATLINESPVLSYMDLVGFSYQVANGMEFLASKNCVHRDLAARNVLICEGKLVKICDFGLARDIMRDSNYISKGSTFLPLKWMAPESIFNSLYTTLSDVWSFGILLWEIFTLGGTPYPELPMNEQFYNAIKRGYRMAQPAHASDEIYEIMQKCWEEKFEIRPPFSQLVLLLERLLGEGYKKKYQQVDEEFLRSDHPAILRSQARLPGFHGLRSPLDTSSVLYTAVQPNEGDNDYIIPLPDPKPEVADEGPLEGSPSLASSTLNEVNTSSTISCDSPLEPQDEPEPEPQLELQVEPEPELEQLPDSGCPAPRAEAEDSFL

SMILES	PDGF Kinase %Inhibition [1] [%]	Biochem EGFR %Inhibition [2] [%]	Met Kinase % Inhibition [3] [%]
O=CN1CCN(c2ccc(C=C3C(=O)Nc4ccc(I)cc43)cc2)CC1 [10725/B07]	100.8	45.8	74.0
O=C1Nc2ccc(I)cc2C1=Cc1c[nH]cn1 [10725/B11]	66.3	43.0	76.3
Cc1c(Br)ccc2c1C(=Cc1cc3ccccc3o1)C(=O)N2 [10724/C07]	22.3	9.4	14.2
O=C1Nc2ccc(CCCl)cc2C1=Cc1ccc([N+](=O)[O-])c(O)c1 [10724/G04]	-12.4	12.9	71.0
O=C1Nc2ccc(CCCl)cc2C1=Cc1cc2ccccc2o1 [10724/G07]	-41.6	-11.7	2.3
CCc1ccc(C=C2C(=O)Nc3ccc(Br)c(C)c32)o1 [10724/C10]	27.2	13.8	91.2
COc1cc(C)cc(O)c1C=C1C(=O)Nc2c(Br)cc(Br)cc21 [10725/A06]	40.9	-9.5	71.7
O=C1Nc2c(Br)cc(Br)cc2C1=Cc1ccc([N+](=O)[O-])c(O)c1 [10724/A04]	5.0	15.4	62.6
Cc1c(Br)cc(Br)c2c1C(=Cc1c(Br)cnn1-c1ccc(Cl)cc1)C(=O)N2 [10725/A10]	33.7	14.0	43.2
CNS(=O)(=O)c1ccc2c(c1)C(=Cc1sc3scc(C)c3c1C)C(=O)N2 [10724/D11]	29.3	12.9	20.3
O=C1Nc2ccc(S(=O)(=O)Nc3ccc(C(F)(F)F)cc3)cc2C1=Cc1ccc([N+](=O)[O-])c(O)c1 [10724/E04]	-32.6	8.9	93.3
Cc1csc2sc(C=C3C(=O)Nc4c(Br)cc(Br)cc43)c(C)c12 [10724/A11]	29.3	-16.6	27.2
O=C1Nc2ccc(CCCl)cc2C1=Cc1ccc(O)c([N+](=O)[O-])c1 [10724/G03]	-2.7	7.8	36.7
Cc1csc2sc(C=C3C(=O)Nc4ccc(S(=O)(=O)Nc5ccc(C(F)(F)F)cc5)cc43)c(C)c12 [10724/E11]	5.0	-26.8	39.3
O=C1Nc2ccc(I)cc2C1=Cc1sccc1Br [10725/B02]	-7.5	2.5	66.9
O=C1Nc2ccc(I)cc2C1=Cc1c(Br)cnn1-c1ccc(Cl)cc1 [10725/B10]	26.0	53.3	69.9
CCc1ccc(C=C2C(=O)Nc3ccc(CCCl)cc32)o1 [10724/G10]	-15.9	-10.6	62.8
Cc1csc2sc(C=C3C(=O)Nc4ccc(CCCl)cc43)c(C)c12 [10724/G11]	-29.1	-29.5	11.2
CC(C)c1cc(C=C2C(=O)Nc3ccc(CCCl)cc32)cc(C(C)C)c1O [10724/G06]	-6.9	3.2	20.3
O=C1Nc2ccc(I)cc2C1=Cc1ccc(N2CCOCC2)cc1 [10725/B08]	29.4	41.8	66.7
O=C1Nc2ccc(CCCl)cc2C1=Cc1cccn1-c1ccc(Cl)cc1 [10724/G09]	-18.0	-21.7	-2.8
O=C1Nc2c(Br)cc(Br)cc2C1=Cc1ccc(O)c([N+](=O)[O-])c1 [10724/A03]	0.1	17.2	30.7
CC(C)(C)c1cc(C=C2C(=O)Nc3ccc(CCCl)cc32)c(O)c(C(C)(C)C)c1 [10723/G11]	-7.7	-35.0	39.4
Cc1c(Br)cc(Br)c2c1C(=Cc1c[nH]cn1)C(=O)N2 [10725/A11]	18.9	14.6	49.1

SMILES	PDGF Kinase %Inhibition [1] [%]	Biochem EGFR %Inhibition [2] [%]	Met Kinase % Inhibition [3] [%]
O=C1Nc2ccc(I)cc2C1=Cc1cccn1-c1ccc(Cl)cc1 [10724/B09]	25.8	8.7	43.8
Cc1cc(C=C2C(=O)Nc3c(Br)cc(Br)cc32)[nH]n1 [10725/A05]	13.1	7.9	47.5
CNS(=O)(=O)c1ccc2c(c1)C(=Cc1ccc(O)c([N+](=O)[O-])c1)C(=O)N2 [10724/D03]	-15.2	2.5	18.2
O=C1Nc2c(Br)cc(Br)cc2C1=Cc1sccc1Br [10725/A02]	-14.2	3.9	46.6
CN(C)c1ccc(C=C2C(=O)Nc3ccc(CCCl)cc32)c2ccccc12 [10724/G02]	-7.6	42.5	44.9
CNS(=O)(=O)c1ccc2c(c1)C(=Cc1ccc([N+](=O)[O-])c(O)c1)C(=O)N2 [10724/D04]	-1.3	5.4	70.5
Cc1c(Br)ccc2c1C(=Cc1ccc(O)c([N+](=O)[O-])c1)C(=O)N2 [10724/C03]	4.3	16.5	68.7
Cc1c(Br)ccc2c1C(=Cc1ccc(N(C)C)c3ccccc13)C(=O)N2 [10724/C02]	-9.0	53.6	40.7
O=C1Nc2c(Br)cc(Br)cc2C1=Cc1cc2c3c(c1O)CCCN3CCC2 [10724/A05]	5.0	20.3	68.4
CNS(=O)(=O)c1ccc2c(c1)C(=Cc1cccn1-c1ccc(Cl)cc1)C(=O)N2 [10724/D09]	18.9	-15.3	16.1
Cc1cc(C=C2C(=O)Nc3ccc(I)cc32)[nH]n1 [10725/B05]	44.7	20.4	68.3
CN(C)c1ccc(C=C2C(=O)Nc3ccc(S(=O)(=O)Nc4ccc(C(F)(F)F)cc4)cc32)c2ccccc12 [10724/E02]	-54.2	39.8	55.4
O=C1Nc2ccc(I)cc2C1=Cc1ccc(O)c([N+](=O)[O-])c1 [10724/B03]	14.7	14.9	51.0
Cc1c(Br)ccc2c1C(=Cc1cc(C(C)C)c(O)c(C(C)C)c1)C(=O)N2 [10724/C06]	34.9	-2.4	15.4
CC(C)c1cc(C=C2C(=O)Nc3ccc(S(=O)(=O)Nc4ccc(C(F)(F)F)cc4)cc32)cc(C(C)C)c1O [10724/E06]	6.3	1.6	25.8
COC(=O)Cc1c(Cl)[nH]c(C=C2C(=O)Nc3ccc(I)cc32)c1C(=O)OC [10725/B09]	43.8	72.3	65.7
CNS(=O)(=O)c1ccc2c(c1)C(=Cc1cc(C(C)C)c(O)c(C(C)C)c1)C(=O)N2 [10724/D06]	40.4	-12.4	23.0
O=C1Nc2c(Br)cc(Br)cc2C1=Cc1cccn1-c1ccc(Cl)cc1 [10724/A09]	19.6	1.6	37.5
O=CN1CCN(c2ccc(C=C3C(=O)Nc4c(Br)cc(Br)cc43)cc2)CC1 [10725/A07]	17.9	18.2	59.3
Cc1c(Br)ccc2c1C(=Cc1ccc([N+](=O)[O-])c(O)c1)C(=O)N2 [10724/C04]	24.4	13.2	84.3
O=C1Nc2ccc(S(=O)(=O)Nc3ccc(C(F)(F)F)cc3)cc2C1=Cc1cccn1-c1ccc(Cl)cc1 [10724/E09]	21.0	6.3	27.0
CN(C)c1ccc(C=C2C(=O)Nc3c(Br)cc(Br)cc32)c2ccccc12 [10724/A02]	6.3	36.7	61.7
COc1ccc(Br)c(C=C2C(=O)Nc3c(Br)cc(Br)cc32)c1O [10725/A03]	5.9	-38.2	68.0
